Each compound was assayed against KRasG12C (M1-K169, biotinylated on the N-terminus) (Homo sapiens (Human), UniProt P01116, G12C) (assay: Covalent competition assay: scintillation proximity assay (SPA) quantifying covalent modification of KRASG12C). Conditions: competition with radiolabeled covalent probe (Compound B/Compound A), 2 hours incubation, 10 nM KRasG12C.
Type: binding
In short: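 Scintillation proximity readout after streptavidin bead capture (30 min) of biotinylated KRasG12C(M1-K169):GDP, 10 nM final, which was covalently labelled over 2 h by 25 nM radio-probe plus 475 nM cold probe unless blocked by compound.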

**Q.** `C=CC(=O)N1CC2(CC(n3nc(N4CCN(C(C)(C)C(=O)OC)CC45CCC5)c(-c4c(Cl)c(C)cc5[nH]ncc45)c3C)C2)C1` (single isomer, unassigned) [Example 180b, methyl 2-(5-(1-(2-acryloyl-2-azaspiro[3.3]heptan-6-yl)-4-(5-chloro-6-methyl-1H-indazol-4-yl)-5-methyl-1H-pyrazol-3-yl)-5,8-diazaspiro[3.5]nonan-8-yl)-2-methylpropanoate] was tested. Which IC50 did it give?
**A.** The IC50 was 17 nM.

**Q.** `C=CC(=O)N1CC2(CC(n3nc(N4CCN(C[C@@H]5COCCO5)C[C@]4(C)COC)c(-c4c(Cl)c(C)cc5[nH]ncc45)c3C)C2)C1` (single isomer, unassigned) [Example 181a] was tested. Which IC50 did it give?
**A.** The IC50 was 929 nM.

**Q.** `C=CC(=O)N1CC2(CC(n3nc(N4CCN(C[C@@H]5COCCO5)C[C@]4(C)COC)c(-c4c(Cl)c(C)cc5[nH]ncc45)c3C)C2)C1` (single isomer, unassigned) [Example 181b] was tested. Which IC50 did it give?
**A.** The IC50 was 8 nM.

**Q.** For `C=CC(=O)N1CC2(CC(n3nc(N4CCN(C[C@@H]5COCCO5)C[C@]4(C)COC)c(-c4c(Cl)c(Cl)cc5[nH]ncc45)c3C)C2)C1` (single isomer, unassigned) [Example 182a], which IC50 is on record?
**A.** The IC50 was 1400 nM.

**Q.** With `C=CC(=O)N1CC2(CC(n3nc(N4CCN(C[C@@H]5COCCO5)C[C@]4(C)COC)c(-c4c(Cl)c(Cl)cc5[nH]ncc45)c3C)C2)C1` (single isomer, unassigned) [Example 182b] as the compound, how does the IC50 read?
**A.** Its IC50 is 8 nM.

**Q.** Which IC50 does the source give for `C=CC(=O)N1CC2(CC(n3nc(N4CCN(CCOC(F)F)CC45CCC5)c(-c4c(Cl)c(C)cc5[nH]ncc45)c3C)C2)C1` (single isomer, unassigned) [Example 183a, 1-(6-(4-(5-chloro-6-methyl-1H-indazol-4-yl)-3-(8-(2-(difluoromethoxy)ethyl)-5,8-diazaspiro[3.5]nonan-5-yl)-5-methyl-1H-pyrazol-1-yl)-2-azaspiro[3.3]heptan-2-yl)prop-2-en-1-one] here?
**A.** Its IC50 is > 5000 nM.

**Q.** How did the IC50 turn out when `C=CC(=O)N1CC2(CC(n3nc(N4CCN(CCOC(F)F)CC45CCC5)c(-c4c(Cl)c(C)cc5[nH]ncc45)c3C)C2)C1` (single isomer, unassigned) [Example 183b, 1-(6-(4-(5-chloro-6-methyl-1H-indazol-4-yl)-3-(8-(2-(difluoromethoxy)ethyl)-5,8-diazaspiro[3.5]nonan-5-yl)-5-methyl-1H-pyrazol-1-yl)-2-azaspiro[3.3]heptan-2-yl)prop-2-en-1-one] was run?
**A.** The IC50 was 27 nM.

**Q.** For `C=C(F)C(=O)N1CC2(CC(n3nc(N4CCN(C[C@@H]5COCCO5)C[C@]4(C)COC)c(-c4c(Cl)c(Cl)cc5[nH]ncc45)c3C)C2)C1` (single isomer, unassigned) [Example 184a], which IC50 is on record?
**A.** The IC50 was > 5000 nM.

**Q.** For `C=C(F)C(=O)N1CC2(CC(n3nc(N4CCN(C[C@@H]5COCCO5)C[C@]4(C)COC)c(-c4c(Cl)c(Cl)cc5[nH]ncc45)c3C)C2)C1` (single isomer, unassigned) [Example 184b], which IC50 is on record?
**A.** Its IC50 is 61 nM.

**Q.** How did the IC50 turn out when `C=CC(=O)N1CC2(CC(n3nc(N4CCN(CC5COCCOC5)CC45CCC5)c(-c4c(Cl)c(C)cc5[nH]ncc45)c3C)C2)C1` (single isomer, unassigned) [Example 185a, 1-(6-(3-(8-((1,4-dioxepan-6-yl)methyl)-5,8-diazaspiro[3.5]nonan-5-yl)-4-(5-chloro-6-methyl-1H-indazol-4-yl)-5-methyl-1H-pyrazol-1-yl)-2-azaspiro[3.3]heptan-2-yl)prop-2-en-1-one] was run?
**A.** The IC50 was 4100 nM.

**Q.** Which IC50 does the source give for `C=CC(=O)N1CC2(CC(n3nc(N4CCN(CC5COCCOC5)CC45CCC5)c(-c4c(Cl)c(C)cc5[nH]ncc45)c3C)C2)C1` (single isomer, unassigned) [Example 185b, 1-(6-(3-(8-((1,4-dioxepan-6-yl)methyl)-5,8-diazaspiro[3.5]nonan-5-yl)-4-(5-chloro-6-methyl-1H-indazol-4-yl)-5-methyl-1H-pyrazol-1-yl)-2-azaspiro[3.3]heptan-2-yl)prop-2-en-1-one] here?
**A.** The IC50 was 15 nM.

**Q.** How did the IC50 turn out when `C=CC(=O)N1CC2(CC(n3nc(N4CCN(CC5COCCOC5)C[C@]4(C)CC)c(-c4c(Cl)c(C)cc5[nH]ncc45)c3C)C2)C1` (single isomer, unassigned) [Example 186a] was run?
**A.** Its IC50 is 1500 nM.

**Q.** Which IC50 does the source give for `C=CC(=O)N1CC2(CC(n3nc(N4CCN(CC5COCCOC5)C[C@]4(C)CC)c(-c4c(Cl)c(C)cc5[nH]ncc45)c3C)C2)C1` (single isomer, unassigned) [Example 186b] here?
**A.** The IC50 was 7 nM.

**Q.** `C=CC(=O)N1CC2(CC(n3nc(N4CCN(C(COC)COC)C[C@]4(C)CC)c(-c4c(Cl)c(C)cc5[nH]ncc45)c3C)C2)C1` (single isomer, unassigned) [Example 187a] was tested. Which IC50 did it give?
**A.** Its IC50 is 4200 nM.

**Q.** For `C=CC(=O)N1CC2(CC(n3nc(N4CCN(C(COC)COC)C[C@]4(C)CC)c(-c4c(Cl)c(C)cc5[nH]ncc45)c3C)C2)C1` (single isomer, unassigned) [Example 187b], which IC50 is on record?
**A.** The IC50 was 5 nM.

**Q.** `C=CC(=O)N1CC2(CC(n3nc(N4CCN(Cc5cn(C)nn5)C[C@]4(C)CC)c(-c4c(Cl)c(C)cc5[nH]ncc45)c3C)C2)C1` (single isomer, unassigned) [Example 188a] was tested. Which IC50 did it give?
**A.** Its IC50 is 387 nM.

**Q.** For `C=CC(=O)N1CC2(CC(n3nc(N4CCN(Cc5cn(C)nn5)C[C@]4(C)CC)c(-c4c(Cl)c(C)cc5[nH]ncc45)c3C)C2)C1` (single isomer, unassigned) [Example 188b], which IC50 is on record?
**A.** The IC50 was 6 nM.

**Q.** How did the IC50 turn out when `C=CC(=O)N1CC2(CC(n3nc(N4CCN(C[C@H]5COCCO5)CC45CCC5)c(-c4c(Cl)c(C)cc5[nH]ncc45)c3C)C2)C1` (single isomer, unassigned) [Example 189a] was run?
**A.** Its IC50 is > 5000 nM.

**Q.** How did the IC50 turn out when `C=CC(=O)N1CC2(CC(n3nc(N4CCN(C[C@H]5COCCO5)CC45CCC5)c(-c4c(Cl)c(C)cc5[nH]ncc45)c3C)C2)C1` (single isomer, unassigned) [Example 189b] was run?
**A.** Its IC50 is 15 nM.

**Q.** `C=CC(=O)N1CC2(CC(n3nc(N4CCN(C(C)(C)CO)CC45CCC5)c(-c4c(Cl)c(C)cc5[nH]ncc45)c3C)C2)C1` (single isomer, unassigned) [Example 190a, 1-(6-(4-(5-Chloro-6-methyl-1H-indazol-4-yl)-3-(8-(1-hydroxy-2-methylpropan-2-yl)-5,8-diazaspiro[3.5]nonan-5-yl)-5-methyl-1H-pyrazol-1-yl)-2-azaspiro[3.3]heptan-2-yl)prop-2-en-1-one] was tested. Which IC50 did it give?
**A.** Its IC50 is 4500 nM.

**Q.** Which IC50 does the source give for `C=CC(=O)N1CC2(CC(n3nc(N4CCN(C(C)(C)CO)CC45CCC5)c(-c4c(Cl)c(C)cc5[nH]ncc45)c3C)C2)C1` (single isomer, unassigned) [Example 190b, 1-(6-(4-(5-Chloro-6-methyl-1H-indazol-4-yl)-3-(8-(1-hydroxy-2-methylpropan-2-yl)-5,8-diazaspiro[3.5]nonan-5-yl)-5-methyl-1H-pyrazol-1-yl)-2-azaspiro[3.3]heptan-2-yl)prop-2-en-1-one] here?
**A.** The IC50 was 111 nM.

**Q.** Which IC50 does the source give for `C=CC(=O)N1CC2(CC(n3nc(N4CCN(C5(C)COC5)CC45CCC5)c(-c4c(Cl)c(C)cc5[nH]ncc45)c3C)C2)C1` (single isomer, unassigned) [Example 191a, 1-(6-(4-(5-Chloro-6-methyl-1H-indazol-4-yl)-5-methyl-3-(8-(3-methyloxetan-3-yl)-5,8-diazaspiro[3.5]nonan-5-yl)-1H-pyrazol-1-yl)-2-azaspiro[3.3]heptan-2-yl)prop-2-en-1-one] here?
**A.** The IC50 was > 5000 nM.

**Q.** How did the IC50 turn out when `C=CC(=O)N1CC2(CC(n3nc(N4CCN(C5(C)COC5)CC45CCC5)c(-c4c(Cl)c(C)cc5[nH]ncc45)c3C)C2)C1` (single isomer, unassigned) [Example 191b, 1-(6-(4-(5-Chloro-6-methyl-1H-indazol-4-yl)-5-methyl-3-(8-(3-methyloxetan-3-yl)-5,8-diazaspiro[3.5]nonan-5-yl)-1H-pyrazol-1-yl)-2-azaspiro[3.3]heptan-2-yl)prop-2-en-1-one] was run?
**A.** Its IC50 is 14 nM.

**Q.** With `C=CC(=O)N1CC2(CC(n3nc(N4CCN(c5ccnnc5)C[C@]4(C)CC)c(-c4c(Cl)c(C)cc5[nH]ncc45)c3C)C2)C1` (single isomer, unassigned) [Example 192a] as the compound, how does the IC50 read?
**A.** The IC50 was > 5000 nM.

**Q.** For `C=CC(=O)N1CC2(CC(n3nc(N4CCN(c5ccnnc5)C[C@]4(C)CC)c(-c4c(Cl)c(C)cc5[nH]ncc45)c3C)C2)C1` (single isomer, unassigned) [Example 192b], which IC50 is on record?
**A.** Its IC50 is 8 nM.

**Q.** Which IC50 does the source give for `C=CC(=O)N1CC2(CC(n3nc(N4CCN(c5cnn(C)c5)CC4(C)C)c(-c4c(Cl)c(C)cc5[nH]ncc45)c3C)C2)C1` (single isomer, unassigned) [Example 193a, 1-(6-(4-(5-Chloro-6-methyl-1H-indazol-4-yl)-3-(2,2-dimethyl-4-(1-methyl-1H-pyrazol-4-yl)piperazin-1-yl)-5-methyl-1H-pyrazol-1-yl)-2-azaspiro[3.3]heptan-2-yl)prop-2-en-1-one] here?
**A.** The IC50 was 20800 nM.

**Q.** How did the IC50 turn out when `C=CC(=O)N1CC2(CC(n3nc(N4CCN(c5cnn(C)c5)CC4(C)C)c(-c4c(Cl)c(C)cc5[nH]ncc45)c3C)C2)C1` (single isomer, unassigned) [Example 193b, 1-(6-(4-(5-Chloro-6-methyl-1H-indazol-4-yl)-3-(2,2-dimethyl-4-(1-methyl-1H-pyrazol-4-yl)piperazin-1-yl)-5-methyl-1H-pyrazol-1-yl)-2-azaspiro[3.3]heptan-2-yl)prop-2-en-1-one] was run?
**A.** Its IC50 is 28 nM.

**Q.** Which IC50 does the source give for `C=CC(=O)N1CC2(CC(n3nc(N4CCN(c5nccn5C)C[C@]4(C)CC)c(-c4c(Cl)c(C)cc5[nH]ncc45)c3C)C2)C1` (single isomer, unassigned) [Example 194a] here?
**A.** Its IC50 is 19 nM.

**Q.** Which IC50 does the source give for `C=CC(=O)N1CC2(CC(n3nc(N4CCN(c5nccn5C)C[C@]4(C)CC)c(-c4c(Cl)c(C)cc5[nH]ncc45)c3C)C2)C1` (single isomer, unassigned) [Example 194b] here?
**A.** Its IC50 is 1300 nM.

**Q.** With `C=CC(=O)N1CC2(CC(n3nc(N4CCN(C(C)=O)CC4)c(-c4c(Cl)ccc5[nH]ncc45)c3C)C2)C1C` (single isomer, unassigned) [Example 195a, 1-(6-(3-(4-Acetylpiperazin-1-yl)-4-(5-chloro-1H-indazol-4-yl)-5-methyl-1H-pyrazol-1-yl)-1-methyl-2-azaspiro[3.3]heptan-2-yl)prop-2-en-1-one] as the compound, how does the IC50 read?
**A.** The IC50 was 10400 nM.

— patent US20240317721A1, “PYRAZOLYL DERIVATIVES AS INHIBITORS OF THE KRAS MUTANT PROTEIN” (NOVARTIS AG, priority 2021, published 2024)
